The values below come from patent US20210253557A1, “SUBSTITUTED TRIAZOLE DERIVATIVES AND USES THEREOF” (Bayer Pharma Aktiengesellschaft, priority 2017, published 2021).

Counter-ions that a name gives are not always drawn.

The target in one experiment is T1, human V2 receptor (Homo sapiens, UniProt P30518).
T1 construct: expressed in transfected cells; host or cells: CHO K1 (ATCC) expressing firefly luciferase under a CRE-responsive promoter
The experiment can be described thus: Cellular in vitro assay for determining vasopressin receptor activity (V2, CRE-luciferase). Conditions: CHO cell line transfected with the human V2 receptor; [Arg8]-vasopressin at EC50 concentration; read-out: IC50 hV2. In kind it is cell-based. Summed up:
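Antagonism was measured as inhibition of a 3-h, EC50-level [Arg8]-vasopressin stimulation, with compounds tested at several concentrations, yielding IC50 values. The read-out was cAMP-driven CRE-luciferase luminescence after lysis, in recombinant CHO K1 cells carrying human V2 receptor. Cells were seeded in 2% FCS DMEM/F12 one day earlier.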

The target of another experiment is T2, human V1a receptor (Homo sapiens, UniProt P37288).
T2 construct: expressed in transfected cells; host or cells: CHO K1 (ATCC), also stably transfected with a modified aequorin
Description: Cellular in vitro assay for determining vasopressin receptor activity (V1a, aequorin luminescence). In kind it is cell-based. Conditions: for IC50: CHO cell line transfected with the human V1a receptor, [Arg8]-vasopressin at EC50 concentration, read-out: IC50 hV1a; for ratio IC50 hV2/hV1a: selectivity ratio of IC50 hV2 to IC50 hV1a.

T1 sequence (P30518 whole entry): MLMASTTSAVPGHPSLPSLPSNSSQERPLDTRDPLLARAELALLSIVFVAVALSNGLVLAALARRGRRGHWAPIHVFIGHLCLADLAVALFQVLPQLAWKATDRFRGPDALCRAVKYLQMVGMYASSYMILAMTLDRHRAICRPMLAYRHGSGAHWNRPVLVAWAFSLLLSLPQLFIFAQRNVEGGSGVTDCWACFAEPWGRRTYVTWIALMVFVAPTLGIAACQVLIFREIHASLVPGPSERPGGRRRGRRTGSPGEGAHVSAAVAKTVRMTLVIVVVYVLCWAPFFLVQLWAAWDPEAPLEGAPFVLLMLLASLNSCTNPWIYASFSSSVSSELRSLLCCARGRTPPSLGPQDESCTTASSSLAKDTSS
T2 sequence (P37288 whole entry): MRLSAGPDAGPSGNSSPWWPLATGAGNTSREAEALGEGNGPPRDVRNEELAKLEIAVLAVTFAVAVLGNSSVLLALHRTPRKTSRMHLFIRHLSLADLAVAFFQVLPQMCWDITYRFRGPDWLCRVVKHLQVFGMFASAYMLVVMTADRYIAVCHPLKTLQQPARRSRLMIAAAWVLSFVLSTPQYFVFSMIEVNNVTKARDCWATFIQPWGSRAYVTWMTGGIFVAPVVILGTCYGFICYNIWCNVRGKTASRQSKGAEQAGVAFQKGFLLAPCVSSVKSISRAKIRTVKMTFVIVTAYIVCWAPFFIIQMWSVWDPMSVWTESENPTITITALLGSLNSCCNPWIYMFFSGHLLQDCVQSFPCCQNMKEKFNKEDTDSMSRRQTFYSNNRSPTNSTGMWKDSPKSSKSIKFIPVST

The term IC50 denotes the concentration needed to halve the response being measured. As for `CCNC(=O)OCc1nc(Cn2nc(-c3ccc(Cl)cc3)n(C[C@H](O)C(F)(F)F)c2=O)nn1-c1cccc(F)c1` [Example 43, [3-({3-(4-Chlorophenyl)-5-oxo-4-[(2S)-3,3,3-trifluoro-2-hydroxypropyl]-4,5-dihydro-1H-1,2,4-triazol-1-yl}methyl)-1-(3-fluorophenyl)-1H-1,2,4-triazol-5-yl]methyl Ethylcarbamate], the IC50 on human V2 receptor worked out at 5.93 nM. In addition, on human V1a receptor, the IC50 stood at 5.59 nM and the “ratio IC50 hV2/hV1a” value came to 1.1.

For `COCCNC(=O)OCc1nc(Cn2nc(-c3ccc(Cl)cc3)n(C[C@H](O)C(F)(F)F)c2=O)nn1-c1cccc(F)c1` [Example 44, [3-({3-(4-Chlorophenyl)-5-oxo-4-[(2S)-3,3,3-trifluoro-2-hydroxypropyl]-4,5-dihydro-1H-1,2,4-triazol-1-yl}methyl)-1-(3-fluorophenyl)-1H-1,2,4-triazol-5-yl]methyl (2-methoxyethyl)carbamate], the IC50 at human V2 receptor came out at 7.98 nM. Also, at human V1a receptor, the IC50 came out at 27.6 nM and the “ratio IC50 hV2/hV1a” value amounted to 0.3.

Take `O=C(NCC(F)(F)F)OCc1nc(Cn2nc(-c3ccc(Cl)cc3)n(C[C@H](O)C(F)(F)F)c2=O)nn1-c1cccc(F)c1` [Example 45, [3-({3-(4-Chlorophenyl)-5-oxo-4-[(2S)-3,3,3-trifluoro-2-hydroxypropyl]-4,5-dihydro-1H-1,2,4-triazol-1-yl}methyl)-1-(3-fluorophenyl)-1H-1,2,4-triazol-5-yl]methyl (2,2,2-trifluoroethyl)-carbamate]: the IC50 at human V2 receptor was found to be 5.13 nM; at human V1a receptor, 11.2 nM. Moreover, at human V1a receptor, the “ratio IC50 hV2/hV1a” value amounted to 0.5.

Regarding `CNC(=O)OCc1nc(Cn2nc(-c3ccc(Cl)cc3)n(C[C@H](O)C(F)(F)F)c2=O)nn1-c1cccc(F)c1` [Example 46, [3-({3-(4-Chlorophenyl)-5-oxo-4-[(2S)-3,3,3-trifluoro-2-hydroxypropyl]-4,5-dihydro-1H-1,2,4-triazol-1-yl}methyl)-1-(3-fluorophenyl)-1H-1,2,4-triazol-5-yl]methyl Methylcarbamate], the IC50 was 9.36 nM on human V2 receptor and 6.47 nM on human V1a receptor. Besides, the “ratio IC50 hV2/hV1a” value on human V1a receptor is 1.5.

For `CCNC(=O)OCc1nc(Cn2nc(-c3ccc(Cl)cc3)n(C[C@H](O)C(F)(F)F)c2=O)nn1-c1ccccc1Cl` [Example 47, [1-(2-Chlorophenyl)-3-({3-(4-chlorophenyl)-5-oxo-4-[(2S)-3,3,3-trifluoro-2-hydroxypropyl]-4,5-dihydro-1H-1,2,4-triazol-1-yl}methyl)-1H-1,2,4-triazol-5-yl]methyl Ethylcarbamate], the IC50 on human V2 receptor came out at 7.16 nM. In addition, on human V1a receptor, the IC50 came to 0.43 nM and the “ratio IC50 hV2/hV1a” value is recorded as 16.6.

As for `COCCNC(=O)OCc1nc(Cn2nc(-c3ccc(Cl)cc3)n(C[C@H](O)C(F)(F)F)c2=O)nn1-c1ccccc1Cl` [Example 48, [1-(2-Chlorophenyl)-3-({3-(4-chlorophenyl)-5-oxo-4-[(2S)-3,3,3-trifluoro-2-hydroxypropyl]-4,5-dihydro-1H-1,2,4-triazol-1-yl}methyl)-1H-1,2,4-triazol-5-yl]methyl (2-methoxyethyl)carbamate], the IC50 on human V2 receptor came out at 5.91 nM. For the same compound, on human V1a receptor, the IC50 was found to be 1.12 nM and the “ratio IC50 hV2/hV1a” value was determined as 5.3.

Consider `CCNC(=O)OCc1nc(Cn2nc(-c3ccc(Cl)cc3)n(C[C@H](O)C(F)(F)F)c2=O)nn1-c1ccccc1C(F)(F)F` [Example 49, {3-({3-(4-Chlorophenyl)-5-oxo-4-[(2S)-3,3,3-trifluoro-2-hydroxypropyl]-4,5-dihydro-1H-1,2,4-triazol-1-yl}methyl)-1-[2-(trifluoromethyl)phenyl]-1H-1,2,4-triazol-5-yl}methyl ethylcarbamate], for which the IC50 on human V2 receptor was found to be 16.7 nM; at human V1a receptor, 0.99 nM. Moreover, the “ratio IC50 hV2/hV1a” value at human V1a receptor was 16.9.

Regarding `CCNC(=O)OCc1nc(Cn2nc(-c3ccc(Cl)cc3)n(C[C@H](OC(=O)NCC)C(F)(F)F)c2=O)nn1-c1ccccc1C(F)(F)F` [Example 50, (2S)-3-{3-(4-Chlorophenyl)-1-[(5-{[(ethylcarbamoyl)oxy]methyl}-1-[2-(trifluoromethyl)phenyl]-1H-1,2,4-triazol-3-yl)methyl]-5-oxo-1,5-dihydro-4H-1,2,4-triazol-4-yl}-1,1,1-trifluoropropan-2-yl ethylcarbamate], the IC50 at human V2 receptor is 22 nM; at human V1a receptor it was 0.95 nM. The “ratio IC50 hV2/hV1a” value at human V1a receptor was 23.0.

For the compound `COCCNC(=O)OCc1nc(Cn2nc(-c3ccc(Cl)cc3)n(C[C@H](O)C(F)(F)F)c2=O)nn1-c1ccccc1C(F)(F)F` [Example 51, {3-({3-(4-Chlorophenyl)-5-oxo-4-[(2S)-3,3,3-trifluoro-2-hydroxypropyl]-4,5-dihydro-1H-1,2,4-triazol-1-yl}methyl)-1-[2-(trifluoromethyl)phenyl]-1H-1,2,4-triazol-5-yl}methyl (2-methoxyethyl)-carbamate], at human V2 receptor, the IC50 stood at 29.7 nM. Further, at human V1a receptor, the IC50 came out at 3.9 nM and the “ratio IC50 hV2/hV1a” value worked out at 7.6.

For `NC(=O)OCc1nc(Cn2nc(-c3ccc(Cl)cc3)n(C[C@H](O)C(F)(F)F)c2=O)nn1-c1ccccc1C(F)(F)F` [Example 52, {3-({3-(4-Chlorophenyl)-5-oxo-4-[(2S)-3,3,3-trifluoro-2-hydroxypropyl]-4,5-dihydro-1H-1,2,4-triazol-1-yl}methyl)-1-[2-(trifluoromethyl)phenyl]-1H-1,2,4-triazol-5-yl}methyl Carbamate], the IC50 on human V2 receptor is 14 nM. At human V1a receptor, the IC50 is 2.15 nM and the “ratio IC50 hV2/hV1a” value came out at 6.5.

For the compound `C[C@H](NC(=O)OC(C)(C)C)c1nc(Cn2nc(-c3ccc(Cl)cc3)n(C[C@H](O)C(F)(F)F)c2=O)nn1-c1cccc(Cl)c1` [Example 56, tert-Butyl {(1S)-1-[1-(3-chlorophenyl)-3-({3-(4-chlorophenyl)-5-oxo-4-[(2S)-3,3,3-trifluoro-2-hydroxypropyl]-4,5-dihydro-1H-1,2,4-triazol-1-yl}methyl)-1H-1,2,4-triazol-5-yl]ethyl}Carbamate], the IC50 on human V2 receptor worked out at 33.4 nM; at human V1a receptor, 286 nM. In addition, the “ratio IC50 hV2/hV1a” value at human V1a receptor was 0.1.

Turning to `C[C@H](N)c1nc(Cn2nc(-c3ccc(Cl)cc3)n(C[C@H](O)C(F)(F)F)c2=O)nn1-c1cccc(Cl)c1` [Example 57, 2-({5-[(1S)-1-Aminoethyl]-1-(3-chlorophenyl)-1H-1,2,4-triazol-3-yl}methyl)-5-(4-chlorophenyl)-4-[(2S)-3,3,3-trifluoro-2-hydroxypropyl]-2,4-dihydro-3H-1,2,4-triazol-3-one hydrochloride], the IC50 on human V2 receptor turned out to be 1.28 nM; at human V1a receptor, 13.1 nM. For the same compound, on human V1a receptor, the “ratio IC50 hV2/hV1a” value was determined as 0.1.

`COC(=O)N[C@@H](C)c1nc(Cn2nc(-c3ccc(Cl)cc3)n(C[C@H](O)C(F)(F)F)c2=O)nn1-c1cccc(Cl)c1` [Example 58, Methyl {(1S)-1-[1-(3-chlorophenyl)-3-({3-(4-chlorophenyl)-5-oxo-4-[(2S)-3,3,3-trifluoro-2-hydroxypropyl]-4,5-dihydro-1H-1,2,4-triazol-1-yl}methyl)-1H-1,2,4-triazol-5-yl]ethyl}Carbamate]: the 50% inhibitory concentration (IC50) on human V2 receptor came out at 1.95 nM; at human V1a receptor, 21.4 nM. In addition, the “ratio IC50 hV2/hV1a” value on human V1a receptor came out at 0.1.

For `NC1(c2nc(Cn3nc(-c4ccc(Cl)cc4)n(C[C@H](O)C(F)(F)F)c3=O)nn2-c2ccccc2Cl)CC1` [Example 76, 2-{[5-(1-Aminocyclopropyl)-1-(2-chlorophenyl)-1H-1,2,4-triazol-3-yl]methyl}-5-(4-chlorophenyl)-4-[(2S)-3,3,3-trifluoro-2-hydroxypropyl]-2,4-dihydro-3H-1,2,4-triazol-3-one hydrochloride], the IC50 on human V2 receptor stood at 3.95 nM. Further, on human V1a receptor, the IC50 came to 0.48 nM and the “ratio IC50 hV2/hV1a” value was 8.3.

As for `CC(=O)NC1(c2nc(Cn3nc(-c4ccc(Cl)cc4)n(C[C@H](O)C(F)(F)F)c3=O)nn2-c2ccccc2Cl)CC1` [Example 77, N-{1-[1-(2-Chlorophenyl)-3-({3-(4-chlorophenyl)-5-oxo-4-[(2S)-3,3,3-trifluoro-2-hydroxypropyl]-4,5-dihydro-1H-1,2,4-triazol-1-yl}methyl)-1H-1,2,4-triazol-5-yl]cyclopropyl}acetamide], on human V2 receptor, the IC50 stood at 340 nM. At human V1a receptor, the IC50 was 6.5 nM and the “ratio IC50 hV2/hV1a” value was determined as 52.3.

As to `CS(=O)(=O)NC1(c2nc(Cn3nc(-c4ccc(Cl)cc4)n(C[C@H](O)C(F)(F)F)c3=O)nn2-c2ccccc2Cl)CC1` [Example 78, N-{1-[1-(2-Chlorophenyl)-3-({3-(4-chlorophenyl)-5-oxo-4-[(2S)-3,3,3-trifluoro-2-hydroxypropyl]-4,5-dihydro-1H-1,2,4-triazol-1-yl}methyl)-1H-1,2,4-triazol-5-yl]cyclopropyl}methane sulfonamide], the IC50 at human V2 receptor is 9.7 nM. Moreover, on human V1a receptor, the IC50 was found to be 1.1 nM and the “ratio IC50 hV2/hV1a” value is 8.8.

Consider `CN(C)C1(c2nc(Cn3nc(-c4ccc(Cl)cc4)n(C[C@H](O)C(F)(F)F)c3=O)nn2-c2ccccc2Cl)CC1` [Example 79, 5-(4-Chlorophenyl)-2-({1-(2-chlorophenyl)-5-[1-(dimethylamino)cyclopropyl]-1H-1,2,4-triazol-3-yl}methyl)-4-[(2S)-3,3,3-trifluoro-2-hydroxypropyl]-2,4-dihydro-3H-1,2,4-triazol-3-one], for which the IC50 at human V2 receptor stood at 14.5 nM; at human V1a receptor, 1 nM. Further, the “ratio IC50 hV2/hV1a” value on human V1a receptor is given as 14.5.
